In brackets after ≈: the same amount, converted by molar mass.
Tests used:
Format in all cases: functional
Staphylococcus aureus [1] = assay: Antimicrobial activity against Staphylococcus aureus RN4220 transformed with Staphylococcus aureus ST9 plasmid pSCFS3 carrying cfr and fexA genes
Staphylococcus aureus [2] = assay: Antimicrobial activity against Staphylococcus aureus RN4220
Staphylococcus aureus [3] = assay: Antimicrobial activity against methicillin-resistant Staphylococcus aureus ST398 expressing cfr, fexA, erm(A), tet(M) and mecA genes
Staphylococcus aureus [4] = assay: Antimicrobial activity against Staphylococcus aureus RN4220 transformed with Staphylococcus aureus ST398 plasmid pSCFS3 carrying cfr and fexA genes
Staphylococcus aureus [5] = assay: Antimicrobial activity against methicillin-susceptible Staphylococcus aureus ST9 expressing cfr, fexA and erm(C) genes

O=C(N[C@H](CO)[C@H](O)c1ccc([N+](=O)[O-])cc1)C(Cl)Cl [CHLORAMPHENICOL]
MIC (Staphylococcus aureus [1]): ≥ 128 mg/L
MIC (Staphylococcus aureus [2]): 4 mg/L (≈ 12.4 µM)
MIC (Staphylococcus aureus [3]): ≥ 128 mg/L
MIC (Staphylococcus aureus [4]): ≥ 128 mg/L
MIC (Staphylococcus aureus [5]): ≥ 128 mg/L

CCC[C@@H]1C[C@@H](C(=O)N[C@@H]([C@H]2O[C@H](SC)[C@H](O)[C@@H](O)[C@H]2O)[C@H](C)Cl)N(C)C1 [CLINDAMYCIN]
MIC (Staphylococcus aureus [1]): ≥ 64 mg/L
MIC (Staphylococcus aureus [2]): 0.125 mg/L (≈ 0.294 µM)
MIC (Staphylococcus aureus [3]): ≥ 64 mg/L
MIC (Staphylococcus aureus [4]): ≥ 64 mg/L
MIC (Staphylococcus aureus [5]): ≥ 64 mg/L

CC[C@H]1OC(=O)[C@H](C)[C@@H](O[C@H]2C[C@@](C)(OC)[C@@H](O)[C@H](C)O2)[C@H](C)[C@@H](O[C@@H]2O[C@H](C)C[C@H](N(C)C)[C@H]2O)[C@](C)(O)C[C@@H](C)C(=O)[C@H](C)[C@@H](O)[C@]1(C)O [ERYTHROMYCIN]
MIC (Staphylococcus aureus [1]): 0.25 mg/L (≈ 0.341 µM)
MIC (Staphylococcus aureus [2]): 0.25 mg/L (≈ 0.341 µM)
MIC (Staphylococcus aureus [3]): ≥ 64 mg/L
MIC (Staphylococcus aureus [4]): 0.25 mg/L (≈ 0.341 µM)
MIC (Staphylococcus aureus [5]): ≥ 64 mg/L

CS(=O)(=O)c1ccc([C@@H](O)[C@@H](CF)NC(=O)C(Cl)Cl)cc1 [FLORFENICOL]
MIC (Staphylococcus aureus [1]): 128 mg/L (≈ 357 µM)
MIC (Staphylococcus aureus [2]): 2 mg/L (≈ 5.58 µM)
MIC (Staphylococcus aureus [3]): ≥ 128 mg/L
MIC (Staphylococcus aureus [4]): 128 mg/L (≈ 357 µM)
MIC (Staphylococcus aureus [5]): ≥ 128 mg/L

CC(=O)NC[C@H]1CN(c2ccc(N3CCOCC3)c(F)c2)C(=O)O1 [LINEZOLID]
MIC (Staphylococcus aureus [2]): 0.5 mg/L (≈ 1.48 µM)
MIC (Staphylococcus aureus [5]): 8 mg/L (≈ 23.7 µM)

Cc1onc(-c2ccccc2)c1C(=O)N[C@@H]1C(=O)N2[C@@H]1SC(C)(C)[C@@H]2C(=O)O [OXACILLIN]
MIC (Staphylococcus aureus [1]): 0.06 mg/L (≈ 0.149 µM)
MIC (Staphylococcus aureus [2]): 0.06 mg/L (≈ 0.149 µM)
MIC (Staphylococcus aureus [3]): ≥ 32 mg/L
MIC (Staphylococcus aureus [4]): 0.06 mg/L (≈ 0.149 µM)
MIC (Staphylococcus aureus [5]): 0.06 mg/L (≈ 0.149 µM)

CN(C)[C@@H]1C(O)=C(C(N)=O)C(=O)[C@@]2(O)C(O)=C3C(=O)c4c(O)cccc4[C@@](C)(O)[C@H]3C[C@@H]12 [TETRACYCLINE]
MIC (Staphylococcus aureus [1]): 0.25 mg/L (≈ 0.563 µM)
MIC (Staphylococcus aureus [2]): 0.25 mg/L (≈ 0.563 µM)
MIC (Staphylococcus aureus [3]): 64 mg/L (≈ 144 µM)
MIC (Staphylococcus aureus [4]): 0.25 mg/L (≈ 0.563 µM)
MIC (Staphylococcus aureus [5]): 0.12 mg/L (≈ 0.27 µM)

C=C[C@]1(C)C[C@@H](OC(=O)CSCCN(CC)CC)[C@]2(C)[C@H](C)CC[C@]3(CCC(=O)[C@H]32)[C@@H](C)[C@@H]1O [TIAMULIN]
MIC (Staphylococcus aureus [1]): ≥ 128 mg/L
MIC (Staphylococcus aureus [2]): 0.063 mg/L (≈ 0.128 µM)
MIC (Staphylococcus aureus [3]): ≥ 128 mg/L
MIC (Staphylococcus aureus [4]): ≥ 128 mg/L
MIC (Staphylococcus aureus [5]): ≥ 128 mg/L

CC1=C\[C@@H](O)CC(=O)Cc2nc(co2)C(=O)N2CCC=C2C(=O)O[C@H](C(C)C)[C@H](C)/C=C/C(=O)NC\C=C\1 [VIRGINIAMYCIN FACTOR M1]
MIC (Staphylococcus aureus [1]): 128 mg/L (≈ 244 µM)
MIC (Staphylococcus aureus [2]): 4 mg/L (≈ 7.61 µM)
MIC (Staphylococcus aureus [3]): 128 mg/L (≈ 244 µM)
MIC (Staphylococcus aureus [4]): 128 mg/L (≈ 244 µM)
MIC (Staphylococcus aureus [5]): 128 mg/L (≈ 244 µM)

From ChEMBL document CHEMBL1629628, “Methicillin-resistant and -susceptible Staphylococcus aureus strains of clonal lineages ST398 and ST9 from swine carry the multidrug resistance gene cfr” (2009)
